# Reference: patent publication US11053204B2, “Pyrimidinyloxy benzene derivatives as herbicides” (FMC Corporation, priority 2015, dated 2021)
# Key:
# Assay type in all cases: in vivo
# [1] = tested on: Italian ryegrass (Lolium multiflorum); assay: Test A preemergence, visual injury rating
# In short: (§1)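 Greenhouse pot test, loam/sand soil. Formulation: non-phytotoxic solvent mix plus surfactant. Pre: directed spray onto soil after sowing. Post: plants at 1–2 leaf, 2–10 cm. Rated visually vs untreated controls at ~10 d, 0 (no effect) to 100 (complete control).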
# [2] = tested on: barnyardgrass (Echinochloa crus-galli); assay: Test A preemergence, visual injury rating
# In short: as §1
# [3] = tested on: giant foxtail (Setaria faberii); assay: Test A preemergence, visual injury rating
# In short: as §1
# kochia (Kochia scoparia) = assay: Test A preemergence, visual injury rating
# In short: as §1
# [4] = tested on: pigweed (Amaranthus retroflexus); assay: Test A preemergence, visual injury rating
# In short: as §1
# [5] = tested on: ragweed (common ragweed, Ambrosia elatior); assay: Test A preemergence, visual injury rating
# In short: as §1
# [6] = tested on: barnyardgrass (Echinochloa crus-galli); assay: Test B flooded paddy test, plant response rating; conditions: 250 g ai/ha; Flood; scale of 0 to 100 where 0 is no effect and 100 is complete control; 13 to 15 days
# In short: (§2)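 Test compounds are applied straight into paddy water held 3 cm above the soil surface, with that flood maintained for the whole test. After 13 to 15 days in the greenhouse, each species is scored visually relative to controls.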
# [7] = tested on: ducksalad (Heteranthera limosa); assay: Test B flooded paddy test, plant response rating; conditions: 250 g ai/ha; Flood; scale of 0 to 100 where 0 is no effect and 100 is complete control; 13 to 15 days
# In short: as §2
# rice (Oryza sativa) = assay: Test B flooded paddy test, plant response rating; conditions: 250 g ai/ha; Flood; scale of 0 to 100 where 0 is no effect and 100 is complete control; 13 to 15 days
# In short: as §2
# [8] = tested on: sedge, umbrella (small-flower umbrella sedge, Cyperus difformis); assay: Test B flooded paddy test, plant response rating; conditions: 250 g ai/ha; Flood; scale of 0 to 100 where 0 is no effect and 100 is complete control; 13 to 15 days
# In short: as §2
# [9] = tested on: blackgrass (Alopecurus myosuroides); assay: Test C preemergence, plant response rating; conditions: Preemergence
# From the text: (§3) Seeds of plant species selected from blackgrass (Alopecurus myosuroides), ryegrass, Italian (Italian ryegrass, Lolium multiflorum), wheat (winter wheat, Triticum aestivum), galium (catchweed bedstraw, Galium aparine), corn (Zea mays), crabgrass, large (large crabgrass, Digitaria sanguinalis), foxtail, giant (giant foxtail, Setaria faberii), johnsongrass (Sorghum halepense), lambsquarters (Chenopodium album), morningglory (Ipomoea coccinea), nutsedge, yellow (yellow nutsedge, Cyperus esculentus), pigweed (Amaranthus retroflexus), ragweed (common ragweed, Ambrosia elatior), soybean (Glycine max), barnyardgrass (Echinochloa crus-galli), oilseed rape (Brassica napus), pigweed, palmer (palmer pigweed, Amaranthus palmeri), waterhemp (common waterhemp, Amaranthus rudis), velvetleaf (Abutilon theophrasti), kochia (Kochia scoparia), surinam grass (Brachiaria decumbens), nightshade (eastern black nightshade, Solanum ptycanthum), wild poinsettia (Euphorbia heterophylla), windgrass (Apera spica-venti), and oat, wild (wild oat Avena fatua), were planted into a blend of loam soil and sand or a silt loam soil and treated preemergence with test chemicals formulated in a non-phytotoxic solvent mixture which included a surfactant.
# (§4) At the same time, plants selected from these crop and weed species and also chickweed (common chickweed, Stellaria media), buckwheat, wild (wild buckwheat, Polygonum convolvulus), wild mustard (Sinapis arvensis), field poppy (Papaver rhoeas), field violet (Viola arvensis), geranium, cutleaf (cutleaf geranium, Geranium dissectum), Canada thistle (Cirsium arvense), and speedwell (bird's-eye speedwell, Veronica persica), were planted in pots containing Sunshine Redi-Earth® planting medium comprising spaghnum peat moss, vermiculite, starter nutrients and dolomitic limestone and treated with postemergence applications of test chemicals formulated in the same manner. Plants ranged in height from 2 to 18 cm (1- to 4-leaf stage) for postemergence treatments. Treated plants and controls were maintained in a greenhouse for 13 to 15 d, after which time all species were compared to controls and visually evaluated. Plant response ratings, summarized in Table C, are based on a scale of 0 to 100 where 0 is no effect and 100 is complete control. A dash (-) response means no test result.
# corn (Zea mays) = assay: Test C preemergence, plant response rating; conditions: Preemergence
# From the text: as §3, §4
# [10] = tested on: crabgrass, large (large crabgrass, Digitaria sanguinalis); assay: Test C preemergence, plant response rating; conditions: Preemergence
# From the text: as §3, §4
# [11] = tested on: foxtail, giant (giant foxtail, Setaria faberii); assay: Test C preemergence, plant response rating; conditions: Preemergence
# From the text: as §3, §4
# [12] = tested on: oilseed rape (Brassica napus); assay: Test C preemergence, plant response rating; conditions: Preemergence
# From the text: as §3, §4
# [13] = tested on: ragweed (common ragweed, Ambrosia elatior); assay: Test C preemergence, plant response rating; conditions: Preemergence
# From the text: as §3, §4
# [14] = tested on: ryegrass, Italian (Italian ryegrass, Lolium multiflorum); assay: Test C preemergence, plant response rating; conditions: Preemergence
# From the text: as §3, §4
# soybean (Glycine max) = assay: Test C preemergence, plant response rating; conditions: Preemergence
# From the text: as §3, §4
# [15] = 31 g ai/ha, 0 to 100 scale, 0 no effect, 100 complete control
# [16] = 125 g ai/ha, 0 to 100 scale (0 no effect, 100 complete control)
structure (smiles),measurement,setting,value
O=C(CCCC(F)(F)F)c1c(Br)cccc1Oc1ncc(Cl)cn1 [Compound 77],"Plant response rating, Ryegrass, Italian",[1]; [15],0
same,"Ryegrass, Italian plant response rating",[1]; [16],70
same,"Plant response rating, Barnyardgrass",[2]; [15],20
same,Barnyardgrass plant response rating,[2]; [16],100
same,"Plant response rating, Foxtail, Giant",[3]; [15],100
same,"Foxtail, Giant plant response rating",[3]; [16],100
same,"Plant response rating, Kochia",kochia (Kochia scoparia); [15],80
same,Kochia plant response rating,kochia (Kochia scoparia); [16],100
same,"Plant response rating, Pigweed",[4]; [15],100
same,Pigweed plant response rating,[4]; [16],100
same,"Plant response rating, Ragweed",[5]; [15],0
same,Ragweed plant response rating,[5]; [16],0
same,"Plant response rating, Barnyardgrass",[6],15
same,"Plant response rating, Ducksalad",[7],85
same,"Plant response rating, Rice",rice (Oryza sativa),0
same,"Plant response rating, Sedge, Umbrella",[8],100
same,"Plant response rating, Blackgrass","[9]; 62 g ai/ha, scale of 0 to 100",90
same,"Plant response rating, Blackgrass","[9]; 125 g ai/ha, scale of 0 to 100",100
same,"Plant response rating, Blackgrass","[9]; 16 g ai/ha, scale 0 to 100",5
same,"Plant response rating, Blackgrass","[9]; 31 g ai/ha, scale 0 to 100",15
same,"Plant response rating, Corn","corn (Zea mays); 62 g ai/ha, scale of 0 to 100",20
same,"Plant response rating, Corn","corn (Zea mays); 125 g ai/ha, scale of 0 to 100",35
same,"Plant response rating, Corn","corn (Zea mays); 16 g ai/ha, scale 0 to 100",0
same,"Plant response rating, Corn","corn (Zea mays); 31 g ai/ha, scale 0 to 100",15
same,"Plant response rating, Crabgrass, Large","[10]; 62 g ai/ha, scale of 0 to 100",100
same,"Plant response rating, Crabgrass, Large","[10]; 125 g ai/ha, scale of 0 to 100",100
same,"Plant response rating, Crabgrass, Large","[10]; 16 g ai/ha, scale 0 to 100",98
same,"Plant response rating, Crabgrass, Large","[10]; 31 g ai/ha, scale 0 to 100",100
same,"Plant response rating, Foxtail, Giant","[11]; 62 g ai/ha, scale of 0 to 100",100
same,"Plant response rating, Foxtail, Giant","[11]; 125 g ai/ha, scale of 0 to 100",100
same,"Plant response rating, Foxtail, Giant","[11]; 16 g ai/ha, scale 0 to 100",95
same,"Plant response rating, Foxtail, Giant","[11]; 31 g ai/ha, scale 0 to 100",100
same,"Plant response rating, Oilseed Rape","[12]; 125 g ai/ha, scale of 0 to 100",100
same,"Plant response rating, Oilseed Rape","[12]; 16 g ai/ha, scale 0 to 100",0
same,"Plant response rating, Oilseed Rape","[12]; 31 g ai/ha, scale 0 to 100",55
same,"Plant response rating, Oilseed Rape","[12]; 62 g ai/ha, scale 0 to 100",100
same,"Plant response rating, Ragweed","[13]; 125 g ai/ha, scale of 0 to 100",45
same,"Plant response rating, Ragweed","[13]; 16 g ai/ha, scale 0 to 100",0
same,"Plant response rating, Ragweed","[13]; 31 g ai/ha, scale 0 to 100",0
same,"Plant response rating, Ragweed","[13]; 62 g ai/ha, scale 0 to 100",40
same,"Plant response rating, Ryegrass, Italian","[14]; 125 g ai/ha, scale of 0 to 100",90
same,"Plant response rating, Ryegrass, Italian","[14]; 16 g ai/ha, scale 0 to 100",0
same,"Plant response rating, Ryegrass, Italian","[14]; 31 g ai/ha, scale 0 to 100",30
same,"Plant response rating, Ryegrass, Italian","[14]; 62 g ai/ha, scale 0 to 100",35
same,"Plant response rating, Soybean","soybean (Glycine max); 125 g ai/ha, scale of 0 to 100",25
same,"Plant response rating, Soybean","soybean (Glycine max); 16 g ai/ha, scale 0 to 100",5
same,"Plant response rating, Soybean","soybean (Glycine max); 31 g ai/ha, scale 0 to 100",5
same,"Plant response rating, Soybean","soybean (Glycine max); 62 g ai/ha, scale 0 to 100",15
O=C(CCCC(F)(F)F)c1c(Cl)cccc1Oc1ncc(Cl)cn1 [Compound 143],"Plant response rating, Ryegrass, Italian",[1]; [15],20
same,"Plant response rating, Ryegrass, Italian",[1]; [16],70
same,"Plant response rating, Barnyardgrass",[2]; [15],20
same,"Plant response rating, Barnyardgrass",[2]; [16],100
same,"Plant response rating, Foxtail, Giant",[3]; [15],100
same,"Plant response rating, Foxtail, Giant",[3]; [16],100
same,"Plant response rating, Kochia",kochia (Kochia scoparia); [15],100
same,"Plant response rating, Kochia",kochia (Kochia scoparia); [16],100
same,"Plant response rating, Ragweed",[5]; [15],0
same,"Plant response rating, Ragweed",[5]; [16],0
same,"Plant response rating, Barnyardgrass",[6],50
same,"Plant response rating, Ducksalad",[7],90
same,"Plant response rating, Rice",rice (Oryza sativa),40
same,"Plant response rating, Sedge, Umbrella",[8],90
same,"Plant response rating, Blackgrass","[9]; 125 g ai/ha, scale of 0 to 100",75
same,"Plant response rating, Blackgrass","[9]; 16 g ai/ha, scale 0 to 100",5
same,"Plant response rating, Blackgrass","[9]; 31 g ai/ha, scale 0 to 100",75
same,"Plant response rating, Blackgrass","[9]; 62 g ai/ha, scale 0 to 100",80
same,"Plant response rating, Corn","corn (Zea mays); 125 g ai/ha, scale of 0 to 100",20
same,"Plant response rating, Corn","corn (Zea mays); 16 g ai/ha, scale 0 to 100",5
same,"Plant response rating, Corn","corn (Zea mays); 31 g ai/ha, scale 0 to 100",0
same,"Plant response rating, Corn","corn (Zea mays); 62 g ai/ha, scale 0 to 100",0
same,"Plant response rating, Crabgrass, Large","[10]; 125 g ai/ha, scale of 0 to 100",100
same,"Plant response rating, Crabgrass, Large","[10]; 16 g ai/ha, scale 0 to 100",70
same,"Plant response rating, Crabgrass, Large","[10]; 31 g ai/ha, scale 0 to 100",100
same,"Plant response rating, Crabgrass, Large","[10]; 62 g ai/ha, scale 0 to 100",100
same,"Plant response rating, Foxtail, Giant","[11]; 125 g ai/ha, scale of 0 to 100",100
same,"Plant response rating, Foxtail, Giant","[11]; 31 g ai/ha, scale 0 to 100",98
same,"Plant response rating, Foxtail, Giant","[11]; 62 g ai/ha, scale 0 to 100",100
same,"Plant response rating, Oilseed Rape","[12]; 125 g ai/ha, scale of 0 to 100",98
same,"Plant response rating, Oilseed Rape","[12]; 31 g ai/ha, scale 0 to 100",5
same,"Plant response rating, Oilseed Rape","[12]; 62 g ai/ha, scale 0 to 100",80
same,"Plant response rating, Ragweed","[13]; 125 g ai/ha, scale of 0 to 100",5
same,"Plant response rating, Ragweed","[13]; 31 g ai/ha, scale 0 to 100",0
same,"Plant response rating, Ragweed","[13]; 62 g ai/ha, scale 0 to 100",0
same,"Plant response rating, Ryegrass, Italian","[14]; 125 g ai/ha, scale of 0 to 100",45
same,"Plant response rating, Ryegrass, Italian","[14]; 31 g ai/ha, scale 0 to 100",20
same,"Plant response rating, Ryegrass, Italian","[14]; 62 g ai/ha, scale 0 to 100",30
same,"Plant response rating, Soybean","soybean (Glycine max); 125 g ai/ha, scale of 0 to 100",20
same,"Plant response rating, Soybean","soybean (Glycine max); 31 g ai/ha, scale 0 to 100",0
same,"Plant response rating, Soybean","soybean (Glycine max); 62 g ai/ha, scale 0 to 100",15
